Experimental data published in patent publication US8710062B2, “Piperazinedione compounds” (Taipei Medical University, priority 2011, dated 2014).
Counter-ions that a name gives are not always drawn.

System: 60 Human Cancer Cell Lines (NCI-60)
Assay: Broad-spectrum anticancer activity (NCI-60, SRB)
Format: cell-based
Details: mean against leukemia, NSCLC, colon, CNS, melanoma, ovarian, renal, prostate and breast cancer, 48 h, read-out: mean pIC50 (converted)
Protocol: Broad-spectrum anticancer activities were conducted by NCI/NIH following standard protocols.
Human tumor cell lines were grown in RPMI 1640 medium containing 5% fetal bovine serum and 2 mM L-glutamine. For a typical screening experiment, cells were inoculated into 96-well microtiter plates in 100 μL at the plating densities ranging from 5,000 to 40,000 cells/well depending on the doubling time of individual cell lines. After cell inoculation, the microtiter plates were incubated at 37° C., 5% CO2, 95% air and 100% relative humidity for 24 h prior to addition of experimental drugs. […]
Following drug addition, the plates were incubated for an additional 48 h at 37° C., 5% CO2, 95% air, and […]. […] Bound stain was subsequently solubilized with 10 mM trizma base, and the absorbance was read on an automated plate reader at a wavelength of 515 nm. […] Using the seven absorbance measurements [time zero, (Tz), control growth, (C), and test growth in the presence of drug at the five concentration levels (Ti)], the percentage growth was calculated at each of the drug concentrations levels. Percentage growth inhibition was calculated as: [(Ti−Tz)/(C−Tz)]×100 for concentrations for which Ti>/=Tz [(Ti−Tz)/Tz]×100 for concentrations for which Ti<Tz.
Three dose response parameters were calculated for each experimental agent. […]

`O=c1[nH]/c(=C\c2ccc(OCc3ccncc3)cn2)c(=O)[nH]/c1=C\c1ccccc1` [Compound 2, 3-benzylidene-6-((5-(pyridin-4-ylmethoxy)pyridin-2-yl)methylene)piperazine-2,5-dione methanesulfonic acid salt] showed an IC50 of 52.5 nM.
